Assay [1] concerns the target T1, adenylosuccinate synthetase (AdSS) (Helicobacter pylori, UniProt P56137).
T1 construct: gene purA; recombinant protein expressed from pET21b-HPpurA
T1 sequence (P56137 1-411): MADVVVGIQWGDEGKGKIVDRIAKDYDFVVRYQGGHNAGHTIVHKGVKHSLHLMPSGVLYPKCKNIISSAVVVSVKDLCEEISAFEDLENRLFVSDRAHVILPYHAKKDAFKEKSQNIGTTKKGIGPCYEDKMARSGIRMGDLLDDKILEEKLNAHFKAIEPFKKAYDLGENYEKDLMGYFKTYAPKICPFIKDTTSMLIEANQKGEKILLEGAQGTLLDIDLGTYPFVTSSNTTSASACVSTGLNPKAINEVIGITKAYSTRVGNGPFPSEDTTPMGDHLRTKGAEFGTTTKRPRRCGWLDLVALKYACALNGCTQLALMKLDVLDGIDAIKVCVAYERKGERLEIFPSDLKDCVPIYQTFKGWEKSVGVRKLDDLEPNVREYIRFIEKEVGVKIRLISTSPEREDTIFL
The assay can be described thus: spectrophotometric enzyme assay at […] nm, competitive inhibition fit and Dixon plot. It is filed as biochemical.

In assay [2] the target is T1, adenylosuccinate synthetase (AdSS). The assay can be described thus: spectrophotometric enzyme assay at […] nm, competitive inhibition fit and Dixon plot (reaction product tested as inhibitor). It is filed as biochemical.

Take `O=CN(O)CC(=O)O` [hadacidin]: in assay [1], affinity was put at a Ki of 0.19 ± 0.02 µM.

As for `O=C(O)C[C@H](Nc1ncnc2c1ncn2[C@@H]1O[C@H](COP(=O)(O)O)[C@@H](O)[C@H]1O)C(=O)O` [adenylosuccinate], the Ki (as a rule, a measure of affinity in units of concentration, obtained from inhibition or displacement) in assay [2] amounted to 3.5 ± 0.3 µM.

The values above are taken from article PMC6136348, “In the quest for new targets for pathogen eradication: the adenylosuccinate synthetase from the bacterium Helicobacter pylori” (Journal of Enzyme Inhibition and Medicinal Chemistry, 2018).
